The record followed here is patent US20250282776A1, “Bicyclic TLR7 Agonists and Uses Thereof” (Bristol-Myers Squibb Company, priority 2024, published 2025).

What is called EC50 is the midpoint of the concentration-response curve.

The target of assay [1] is T1, human TLR7 (hTLR7) (Homo sapiens, UniProt Q9NYK1).
T1 construct: host or cells: HEK-Blue TLR7 cells (engineered human embryonic kidney cells)
T1 sequence (Q9NYK1 27-1049): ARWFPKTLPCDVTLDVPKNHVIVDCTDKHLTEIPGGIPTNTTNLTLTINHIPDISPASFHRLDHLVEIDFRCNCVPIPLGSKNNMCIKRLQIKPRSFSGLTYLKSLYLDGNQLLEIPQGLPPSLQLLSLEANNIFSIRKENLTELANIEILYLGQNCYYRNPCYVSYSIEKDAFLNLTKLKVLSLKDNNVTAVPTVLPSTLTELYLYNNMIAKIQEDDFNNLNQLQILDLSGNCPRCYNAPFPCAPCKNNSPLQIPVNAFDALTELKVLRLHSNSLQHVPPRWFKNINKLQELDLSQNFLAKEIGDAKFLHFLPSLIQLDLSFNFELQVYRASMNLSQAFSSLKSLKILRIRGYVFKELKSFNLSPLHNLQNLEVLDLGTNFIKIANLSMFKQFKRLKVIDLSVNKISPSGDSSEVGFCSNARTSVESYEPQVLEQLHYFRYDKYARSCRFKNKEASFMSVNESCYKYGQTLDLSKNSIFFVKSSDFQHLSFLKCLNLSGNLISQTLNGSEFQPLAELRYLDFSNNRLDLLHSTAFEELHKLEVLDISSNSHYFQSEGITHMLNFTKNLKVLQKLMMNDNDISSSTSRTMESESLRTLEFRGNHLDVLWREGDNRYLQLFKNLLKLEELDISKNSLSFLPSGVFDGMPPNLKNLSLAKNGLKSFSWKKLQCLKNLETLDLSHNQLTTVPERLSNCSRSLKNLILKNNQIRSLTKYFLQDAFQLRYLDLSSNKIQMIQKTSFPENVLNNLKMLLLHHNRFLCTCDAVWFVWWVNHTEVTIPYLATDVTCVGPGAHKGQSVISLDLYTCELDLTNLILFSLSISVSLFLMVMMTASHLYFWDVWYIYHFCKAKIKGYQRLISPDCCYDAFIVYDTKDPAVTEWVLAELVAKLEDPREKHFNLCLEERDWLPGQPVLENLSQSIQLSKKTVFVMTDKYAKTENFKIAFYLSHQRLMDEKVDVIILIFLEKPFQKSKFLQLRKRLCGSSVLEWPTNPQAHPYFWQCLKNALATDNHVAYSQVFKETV
The assay is described as follows: Human TLR7 agonist activity assay (HEK-Blue TLR7 SEAP reporter). The format is cell-based. As to conditions: HEK-Blue TLR7 cells, 18 h incubation, Quanti-Blue, OD 620 nm, some values average of multiple measurements. In short, it runs like this:
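HEK-Blue TLR7 cells seeded 16-18 h, then exposed to compound for 18 h at 37 °C, 5% CO2. Secreted SEAP read with Quanti-Blue at OD 620 nm after 30 min. EC50 taken as concentration giving half-maximal response between baseline and maximum; some values averaged over repeats.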

In assay [2] the target is T2, human TLR8 (hTLR8) (Homo sapiens, UniProt Q9NR97).
T2 construct: expressed in transfected cells
T2 sequence (Q9NR97 27-1041): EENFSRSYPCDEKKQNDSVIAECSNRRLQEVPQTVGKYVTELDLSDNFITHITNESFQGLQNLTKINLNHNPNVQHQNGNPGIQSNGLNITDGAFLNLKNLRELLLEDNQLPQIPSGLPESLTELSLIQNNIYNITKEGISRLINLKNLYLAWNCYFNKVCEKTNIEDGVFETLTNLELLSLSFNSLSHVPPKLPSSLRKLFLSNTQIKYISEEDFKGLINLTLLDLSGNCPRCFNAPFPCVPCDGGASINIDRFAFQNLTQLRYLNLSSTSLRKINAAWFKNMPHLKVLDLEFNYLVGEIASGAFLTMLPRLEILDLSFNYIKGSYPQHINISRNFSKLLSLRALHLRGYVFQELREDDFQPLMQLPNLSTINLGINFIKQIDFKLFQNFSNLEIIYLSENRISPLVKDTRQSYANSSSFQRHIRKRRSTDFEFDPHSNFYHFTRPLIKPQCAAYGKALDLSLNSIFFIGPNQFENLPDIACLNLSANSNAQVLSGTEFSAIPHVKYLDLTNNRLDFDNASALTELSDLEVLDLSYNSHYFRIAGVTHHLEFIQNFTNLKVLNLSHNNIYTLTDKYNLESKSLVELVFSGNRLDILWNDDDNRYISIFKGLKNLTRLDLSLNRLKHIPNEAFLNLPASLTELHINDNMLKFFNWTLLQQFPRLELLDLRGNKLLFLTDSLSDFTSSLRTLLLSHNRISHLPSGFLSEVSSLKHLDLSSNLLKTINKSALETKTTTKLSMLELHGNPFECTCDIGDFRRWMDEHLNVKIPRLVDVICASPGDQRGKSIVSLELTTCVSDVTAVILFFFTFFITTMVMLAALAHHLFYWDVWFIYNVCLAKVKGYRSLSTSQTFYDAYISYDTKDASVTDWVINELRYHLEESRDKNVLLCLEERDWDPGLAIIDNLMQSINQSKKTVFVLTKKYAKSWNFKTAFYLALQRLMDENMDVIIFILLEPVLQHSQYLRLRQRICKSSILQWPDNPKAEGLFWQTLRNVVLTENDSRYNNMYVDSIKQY
The assay is described as follows: Human TLR8 agonist activity assay (measured in a similar manner). The format is cell-based. As to conditions: HEK-Blue TLR cells, SEAP reporter, measured in a similar manner to TLR7; some values average of multiple measurements. In short, it runs like this:
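Compounds were added to HEK-Blue TLR8 reporter cells, pre-incubated 16-18 h, then treated 18 h at 37° C, 5% CO2. SEAP output was measured with Quanti-Blue (30 min) at OD 620 nm. Some values are averages of multiple measurements.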

Each structure is given as a SMILES string.

For `CCCCN(CCO)c1nc(N)nc2cn(Cc3c(OC)cc(CN[C@@H]4CCOC4)cc3OC)nc12` [Compound 145], the EC50 in assay [1] worked out at 1440 nM; in assay [2], 2020 nM.
Turning to `CCCCN(CCO)c1nc(N)nc2cn(Cc3ccc(CN[C@@H]4CCOC4)c4oc(C)nc34)nc12` [Compound 142], the concentration giving a half-maximal response (EC50) in assay [1] is 1630 nM; in assay [2], 915 nM.
With `CCCCN(CCO)c1nc(N)nc2cn(Cc3ccc(CN[C@@H]4COC[C@@H]4F)cc3OC)nc12` [Compound 54], the results for the EC50 in assay [1] and in assay [2] were 1330 nM and 1500 nM, respectively.
Take `CCCCN(CCO)c1nc(N)nc2cn(Cc3ccc(CNC4CC(O)C4)cc3OC)nc12` (stereo not shown) [Compound 29]: the EC50 in assay [1] and in assay [2] was 2500 nM in each case.
`CCCCN(CCO)c1nc(N)nc2cn(Cc3ccc(CN4CCN(C)CC4)cc3OC)nc12` [Compound 13]: the EC50 came to 733 nM in assay [1] and 1130 nM in assay [2].
The corresponding values for `CCCCN(CCO)c1nc(N)nc2cn(Cc3ccc(CN[C@H]4C[C@H]5COC[C@H]54)cc3OC)nc12` [Compound 22] are 614 nM and 547 nM.
The corresponding values for `CCCCN(CCO)c1nc(N)nc2cn(Cc3ccc(CN[C@H]4CCOC[C@H]4C)cc3OC)nc12` [Compound 139] are 1220 nM and 542 nM.
For `CCCCN(CCO)c1nc(N)nc2cn(Cc3ccc(CNC4CCCOC4)cc3OC)nc12` (stereo not shown) [Compound 105], the values for the EC50 in assay [1] and in assay [2] were 1820 nM and 2780 nM, respectively.
The matching figures for `CCCCN(CCO)c1nc(N)nc2cn(Cc3ccc(CNC4CCCOC4)c4scnc34)nc12` (stereo not shown) [Compound 202]: 614 nM and 725 nM.
On to `CCCCN(CCO)c1nc(N)nc2cn(Cc3ccc(CNC(C)C)cc3)nc12` [Compound 162], for which the EC50 came to 1570 nM in assay [1] and 805 nM in assay [2].
The matching figures for `CCCCN(CCO)c1nc(N)nc2cn(Cc3ccc(CNC4CCN(CCOC)CC4)c4cccnc34)nc12` [Compound 66]: 1590 nM and 2130 nM.
The corresponding values for `CCCCN(CCO)c1nc(N)nc2cn(Cc3ccc(CNC4(C)CC4)cc3OC)nc12` [Compound 89] are 1550 nM and 961 nM.
With `CCCCN(CCO)c1nc(N)nc2cn(Cc3c(F)cc(C4=CCC(NC5CC6(COC6)C5)CC4)cc3OC)nc12` (stereo not shown) [Compound 192], the EC50 in assay [1] was determined as 550 nM; in assay [2], 1600 nM.
Take `CCCCN(c1nc(N)nc2cn(Cc3ccc(CN[C@@H]4CCOC4)cc3OC)nc12)C(C)CO` (stereo partly shown) [Compound 68]: the EC50 in assay [1] was determined as 349 nM; in assay [2], 1320 nM.
The matching figures for `CCCCN(CCO)c1nc(N)nc2cn(Cc3c(F)cc(C4CCN(C)CC4)cc3OC)nc12` [Compound 47]: 186 nM and 538 nM.
In the case of `COc1cc(CNC2CCC2)ccc1Cn1cc2nc(N)nc(N(CCO)CCCCF)c2n1` [Compound 176], the results for the 50% effective concentration (EC50) in assay [1] and in assay [2] were 1640 nM and 1950 nM, respectively.
The matching figures for `CCCCN(CCO)c1nc(N)nc2cn(Cc3c(F)cc(C4=CCNC4)cc3OC)nc12` [Compound 147]: 1810 nM and 2020 nM.
The matching figures for `CCCCN(CCO)c1nc(N)nc2cn(Cc3ccc(CNC4C[C@@H](C)O[C@@H](C)C4)cc3OC)nc12` (stereo partly shown) [Compound 166]: 694 nM and 529 nM.
Consider `CCCCN(CCO)c1nc(N)nc2cn(Cc3ccc(CNCCCC4CC4)c4cccnc34)nc12` [Compound 63], for which the concentration for a half-maximal effect (EC50) in assay [1] was found to be 915 nM; in assay [2], 736 nM.
With `CCCCN(CCO)c1nc(N)nc2cn(Cc3ccc(CNC4CCOCC4)n4ncnc34)nc12` [Compound 171], the EC50 was 1700 nM in assay [1] and 1900 nM in assay [2].
Consider `CCCCN(CCO)c1nc(N)nc2cn(Cc3ccc(CNC(C)(C)CO)cc3OC)nc12` [Compound 32], for which the half-maximal effective concentration (EC50) in assay [1] was 2500 nM; in assay [2], 1200 nM.
On to `CCCCN(CCO)c1nc(N)nc2cn(Cc3ccc(CNC4CCOC4)cc3OC)nc12` (stereo not shown) [Compound 25], for which the EC50 in assay [1] amounted to 430 nM; in assay [2], 360 nM.
The corresponding values for `CCCCN(CCO)c1nc(N)nc2cn(Cc3ccc(CN4C[C@H]5COC[C@H]5C4)cc3OC)nc12` [Compound 11] are 732 nM and 727 nM.
In the case of `CCCCN(CCO)c1nc(N)nc2cn(Cc3ccc(CNC4(C)COC4)cc3OC)nc12` [Compound 21], the figures for the 50% effective concentration (EC50) in assay [1] and in assay [2] were 587 nM and 834 nM, respectively.
The matching figures for `CCCCN(CCO)c1nc(N)nc2cn(Cc3c(F)cc(C4CCN(CC(N)=O)CC4)cc3OC)nc12` [Compound 41]: 251 nM and 858 nM.
The corresponding values for `CCCCN(CCO)c1nc(N)nc2cn(Cc3ccc(CNCCOC)c4nccnc34)nc12` [Compound 208] are 1890 nM and 1270 nM.
The corresponding values for `CCCCN(CCO)c1nc(N)nc2cn(Cc3c(F)cc(C4CCN(C5CC6(CCC6)C5)CC4)cc3OC)nc12` [Compound 39] are 396 nM and 437 nM.
As for `CCCCN(CCO)c1nc(N)nc2cn(Cc3ccc(CN4CCCC4)cc3C(F)F)nc12` [Compound 97], the concentration giving a half-maximal response (EC50) in assay [1] and in assay [2] was 1050 nM throughout.
Regarding `CCCCN(CCO)c1nc(N)nc2cn(Cc3ccc(CN4CCCC4)cc3OC)nc12` [Compound 4], the EC50 was 694 nM in assay [1] and 633 nM in assay [2].
The matching figures for `CCCCN(CCO)c1nc(N)nc2cn(Cc3c(F)cc(C4CCN(CCS(C)(=O)=O)CC4)cc3OC)nc12` [Compound 42]: 101 nM and 496 nM.
For the compound `CCCCNCc1ccc(Cn2cc3nc(N)nc(N(CCO)CCCC)c3n2)c(C(F)F)c1` [Compound 127], the EC50 was found to be 1800 nM in assay [1] and 2420 nM in assay [2].
For `CCCCN(CCO)c1nc(N)nc2cn(Cc3ccc(CNC[C@H]4C[C@H](O)C4)cc3OC)nc12` [Compound 23], the EC50 is 1910 nM in assay [1] and 1900 nM in assay [2].
Regarding `CCCCN(CCO)c1nc(N)nc2cn(Cc3ccc(CNCCOC)cc3)nc12` [Compound 161], the results for the EC50 in assay [1] and in assay [2] were 658 nM and 506 nM, respectively.
The corresponding values for `CCCCN(CCO)c1nc(N)nc2cn(Cc3c(F)cc(N4CCC(NC(C)C)CC4)cc3OC)nc12` [Compound 152] are 749 nM and 1830 nM.
The matching figures for `CCCCN(CCO)c1nc(N)nc2cn(Cc3cc(OC)c(C4CCN(CC(C)(C)O)CC4)cc3OC)nc12` [Compound 107]: 1280 nM and 3030 nM.
